Assay: gradient 5% acetonitrile 3 min, to 50% in 2 min, to 85% in 15 min, held 3 min, 100 µL/min
Conditions: column: Zorbax Extend-C18 2.1 x 50 mm; eluents: water / acetonitrile, 0.1% formic acid
Procedure, shortened: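 Values are retention times taken from adduct peaks that software picked and an analyst inspected. The pure standards were run as mixtures of ~100 molecules on HPLC linked to a quadrupole time-of-flight mass spectrometer, in positive and negative ionization mode. A Zorbax Extend-C18 column (2.1 × 50 mm, 1.8 μm) was used at 100 μL/min with water and acetonitrile, each including 0.1% formic acid.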

SMILES | RP-LC retention time [s]
CC(C)CCn1c(CN(C)C(=O)c2ccco2)nc2ccccc21 | 718
CCc1ccc(CNC(=O)C2CCN(c3cc(Oc4ccc(CC)cc4)ncn3)CC2)cc1 | 1120
COc1ccccc1-c1nc(-c2ccc(S(=O)(=O)N3CCC(C(=O)N4CCCC4)CC3)cc2)no1 | 952
Cc1ccc(C2=NC3(CCN(C(=O)c4n[nH]c5c4CCCC5)CC3)ON2)cc1 | 736
Cc1ccc(S(=O)(=O)N2CCCC2c2nc(-c3ccccc3C)no2)cc1Cl (stereo not given) | 1290
O=C(NC1(c2nc(-c3cccnc3)no2)CCCCC1)c1ccc[nH]c1=O | 667
CNC(=O)c1cc2nc(N(C)C)n(-c3ccc(OC)cc3)c2s1 | 888
Cc1noc(C2CN(CCCc3ccccc3)CC23CCCC3)n1 (stereo not given) | 1020
COc1ccc(CCN2CCC(CNS(=O)(=O)c3ccc4c(c3)CCCC(=O)N4)CC2)cc1 | 628
CCC(CC)C(=O)N1C[C@H]2C[C@H](C1)[C@H]1CCCC(=O)N1C2 | 645
Cc1ccc(OCCC2CCNC2)cc1 (stereo not given) | 646
O=C(Cn1cnc2nc3c(cc2c1=O)CCCC3)Nc1cccc2c1CCCC2 | 808
Cc1oc(C2CCN(C(=O)c3ccc(F)c(Cl)c3)CC2)nc1C(=O)N1CCCCC1 | 868
O=C(NCc1ccccc1Cl)C1CCCN(C(=O)NC2CC2)C1 (stereo not given) | 652
Cn1c(N2CCC(C(=O)NC3CCN(Cc4ccccc4)CC3)CC2)cc(=O)n(C)c1=O | 578
CCC(=O)N1CCc2cc(N3CC(C(=O)NCc4ccc(Cl)cc4)CC3=O)ccc21 (stereo not given) | 637
CCN1C(=O)COc2cc(-c3noc(C(=O)N4CCN(C5CCCCC5)CC4)n3)ccc21 | 652
Cc1noc2nc(C)n(CC(=O)NCc3ccccc3)c(=O)c12 | 716
CC1(C)O[C@@H]2C[C@H]3[C@@H]4C[C@H](F)C5=CC(=O)C=C[C@]5(C)[C@@]4(F)[C@@H](O)C[C@]3(C)[C@]2(C(=O)CO)O1 | 921
Cc1cc(C)cc(-c2nnc3ccc(Cl)nn23)c1 | 859
Cc1ccnc(Nc2nc(-c3ccccc3C)cs2)c1 | 821

SMILES | RP-LC retention time [s]
COC(=O)c1cc2ccsc2n1Cc1ccccc1C#N | 1030
CCN(CC)C(=O)c1ccc2c(c1)N(CC(=O)NC1CCCCCCC1)C(=O)CS2 | 879
CCC(=O)N1CCCC(C(=O)NC2CC2)C1 (stereo not given) | 567
COCCNC(=O)C(=O)NCC1(c2ccc(F)cc2)CCOCC1 | 676
O=S(=O)(c1ccc2c(c1)OCCO2)N1CCN(S(=O)(=O)C2CC2)CC1 | 762
CN(C)C(=O)c1n[nH]c2c1CN(C(=O)c1cccc(Br)c1)CC2 | 654
O=C(NCCc1ccco1)c1ccc2ccnc(N3CCN(c4ccccc4)CC3)c2c1 | 772
CCCCCn1c(=O)c2c(nc3n2CCCCN3c2ccc(OCC)cc2)n(C)c1=O | 1190
Cc1cc(NC(=O)NC(=O)c2ccccc2NC(=O)C(C)N)ccc1Oc1ncc(Br)cn1 (stereo not given) | 715
COCC1CN(S(=O)(=O)c2ccc(C)c(F)c2)CC12CCNCC2 (stereo not given) | 643
COCCCNC(=O)C1CCN(c2cncnc2N2CCOCC2)CC1 | 550
CCC(=O)Nc1ccc(CCc2nc3ccc(C(=O)NC(C)C)cc3[nH]2)cc1 | 813
CCc1nc2cc(-c3noc(Cc4ccc(OC)cc4Cl)n3)ccc2o1 | 1190
CCN1CCC(N(Cc2cccs2)C(=O)Nc2ccc(C)cc2)CC1 | 667
CN1CC=C(c2noc(CCC(=O)NCc3ccc4c(c3)OCO4)n2)CC1 | 587
CCn1ccc2sc(C)c(C(=O)N3CCN(CC(C)C)CC3)c2c1=O | 574
O=C(NCc1cc(-c2cc3ccccc3o2)on1)c1ccc2c(c1)OCO2 | 856
O=C(NCCCN1CCOC(c2ccccc2)C1)c1ccc(Cl)cc1Cl (stereo not given) | 599
CCOc1ccc(NC(=O)C2CCN(S(=O)(=O)c3ccc4c(c3)sc(=O)n4CC)CC2)cc1 | 924
Cc1ccc(S(=O)(=O)Nc2ccc3c(c2)CCC(=O)N3)cc1Cl | 766
O=C(Nc1ccc(Cl)cc1)C1CCc2sc(C(=O)N3CCOCC3)cc2C1 (stereo not given) | 759

SMILES | RP-LC retention time [s]
CN(C(=O)C1CCN(S(=O)(=O)c2ccc3c(c2)sc(=O)n3C)CC1)C1CCCCC1 | 910
O=C(Nc1cccc(Cl)c1F)N1CCC(N2CC(F)(F)C[C@H]2COCC2CC2)CC1 | 762
CN(C)c1cc(C(=O)NC2CCCC2)c2ccccc2n1 | 619
CCCNC(=O)C1CCCN(c2nc3ncn(CC(=O)Nc4ccccc4)c(=O)c3s2)C1 (stereo not given) | 683
CCOc1ccc(Cc2nc(-c3ccc4c(c3)N(CC)C(=O)CO4)no2)cc1OCC | 1070
O=C(CCC1CCN(c2cc(NC3CC3)ncn2)CC1)NCc1cccc(Cl)c1 | 680
CCOC(=O)c1ccc(NC(=O)N(C)Cc2nc3cc(C(=O)N(C)C)ccc3n2C)cc1 | 634
O=C(NCc1cccs1)c1nc2ccccn2c1-c1ccsc1 | 830
CN1CCCCCCN(S(=O)(=O)c2cccc3nsnc23)CCC1=O | 783
Cc1ccc(-c2nccn3cc(C(=O)N4CCN(CC(C)C)CC4)nc23)cc1 | 656
NC(=O)C1CCN(c2nc3ccccc3nc2S(=O)(=O)Cc2ccc(Cl)cc2)CC1 | 876
Cc1c2c(cc3c1[nH]c1ccccc13)C=NCC2 | 630
Cc1nc(C2CCCN2Cc2ccc(C)s2)n[nH]1 (stereo not given) | 554
CCCCc1c(-c2ccc(OC)cc2)[nH]c2nccnc12 | 912
CN1C(=O)c2cc(C(=O)NCCc3ccccc3)nn2CC1(C)C(=O)NC1CCCCC1 (stereo not given) | 812
Cn1cnc(S(=O)(=O)N2CCC(C(=O)NC3CCCCC3)CC2)c1 | 659
CC(Oc1ccccc1)C(=O)N(C)CCc1noc(-c2ccccc2)n1 (stereo not given) | 903
CCCN1C(=O)C(CC(=O)NCCOC)Sc2ncccc21 (stereo not given) | 632
O=C(CSc1nccn1-c1ccc(C(=O)NCc2cccs2)cc1)NC1CCCC1 | 644
O=C(NCC1COc2ccccc2O1)C(=O)N1CCCCC1 (stereo not given) | 757
Cc1nnc(-c2cc(NC(=O)c3ccc(C(F)(F)F)cc3)c(C)s2)o1 | 986

Next, values leading:

RP-LC retention time [s] | SMILES
1060 | Cc1ccc(CN2N=C(C(=O)N3CCC(C)CC3)S(=O)(=O)c3ccccc32)cc1
872 | Cc1sc(NC(=O)c2ccc(F)cc2)nc1-c1ccc2c(c1)NC(=O)CO2
618 | Cc1ccc(Cl)cc1NC(=O)CSc1nnc2c3cc(-c4ccc(F)cc4)nn3ccn12
790 | Cc1cc(C)c(-c2noc(C)n2)c(NC(=O)c2ccc(Cl)cc2)n1
657 | Cc1ccn2c(NC(=O)C3CCCCC3)c(-c3ccc(F)cc3)nc2c1
913 | CN(C)c1nn(CC(=O)Nc2ccc(F)cc2Cl)c(=O)c2ccccc12
923 | O=C(Nc1cccc(C(F)(F)F)c1)NC1CCN(c2ccc(F)cc2)C1=O (stereo not given)
626 | Cc1nc2sccn2c1-c1nnc(SCc2ccc([N+](=O)[O-])cc2)n1C
814 | Cc1cc2nc(C)c(=O)n(CC(=O)NCCc3c[nH]c4ccccc34)c2cc1C
1020 | Cc1ccc(C)c(NC(=O)Cn2cccc2-c2nnc(-c3ccccc3)o2)c1
1240 | CCCN(CCC)S(=O)(=O)c1ccc(C(=O)Nc2nc(-c3ccc(F)cc3)cs2)cc1
1140 | COc1cc(Cl)ccc1-c1nc(-c2ccc3oc(C)nc3c2)no1
1120 | Cc1ccc(Sc2nccnc2N2CCCC(C(=O)NCc3cc(F)cc(F)c3)C2)cc1 (stereo not given)
1050 | Cc1nc(-c2csc(S(=O)(=O)N3CCCC(C(=O)Nc4ccc(Cl)cc4F)C3)c2)no1 (stereo not given)
841 | COc1ccc(CNC(=O)c2cnc3c(c2)c(=O)n(C)c(=O)n3-c2ccc(OC)cc2)cc1
905 | Cc1ccc(-c2cn3ccn(-c4ccc(Cl)cc4)c(=O)c3n2)cc1
888 | O=C(CSc1nccc(-c2ccc3c(c2)OCO3)n1)c1ccc2c(c1)OCO2
902 | CCn1cc(-c2nc(CC(=O)Nc3ccc(F)cc3C)cs2)c2cccnc21
890 | Cc1ccc2nc(-c3ccc(Cl)cc3)c(Nc3ccccc3C)n2c1
621 | CC1CCN(CCNC(=O)c2ccc3c(c2)nc2n3CCN(Cc3ccccc3)C2=O)CC1
659 | Cn1cnnc1SCCNC(=O)c1cc(-c2ccc(F)cc2)c[nH]1
1040 | COC(=O)c1ccc(-c2nc3cnccn3c2Nc2ccc(C)c(Br)c2)cc1
1180 | Cc1ccc(-c2csc(NC(=O)c3cccs3)n2)cc1C
1180 | c1ccc(CCc2nnc3sc(-c4ccc5ccccc5n4)nn23)cc1
729 | CCn1cc(CCNC(=O)c2cc(F)ccc2Cl)c2cccnc21
893 | Cc1nc2c(ccc3nc(NC(=O)c4cccc(F)c4)sc32)s1
695 | Cc1cccc(-c2nc3ccccn3c2NC(=O)Nc2ccccc2F)c1
